Measured values reported in US20010044416A1 (priority 2000, published 2001).

Legend:
[1] = test system: HBsAg-specific antibodies (anti-HBs); parameters: species or system BALB/c mice; settings: mouse, in vivo
[2] = test system: HBsAg-specific antibodies; parameters: species or system BALB/c mice; settings: mouse, in vivo, po
[3] = test system: HBsAg-specific antibodies (anti-HBs); parameters: species or system BALB/c mice; settings: mouse, in vivo, po
[4] = in vivo; cited from earlier work

Row | Substance | enhancement of immune responses (anti-HBs) with IM delivery [1] | HBsAg-specific IgG in plasma [2] | HBsAg-specific IgG titers, non-CpG ODN versus equivalent dose of CpG ODN [3] | anti-HBs IgG titers in plasma [3] | antibody isotypes (IgG1 Th2-like, IgG2a Th1-like) as indication of Th-bias [3] | dose causing severe diarrhea [4] [µg]
1 | 5′-TCCAGGACTTCTCTCAGGTT-3′ [non-CpG ODN #1982] | not | now detected | no significant difference | much higher levels | predominance of IgG1 | 
2 | Cholera toxin [CT] |  |  |  | much higher levels | predominance of IgG1 | 1 to 5
3 | TCCATGACGTTCCTGACGTT [CpG ODN #1826] | enhancement of immune responses | now detected |  | much higher levels | equally mixed Th1/Th2 response | 
